Data taken from patent US9249155B2, “Thieno [2, 3-D] pyrimidine derivatives and their use to treat arrhythmia” (XENTION LIMITED, priority 2011, dated 2016).

Experiments:
hKv1.5 = biological target: T1, hKv1.5 (Homo sapiens, UniProt P22460); experiment: Kv1.5 electrophysiology, whole cell patch clamp; type: cell-based; details: CHO stably transfected with hKv1.5, whole cell patch clamp, room temperature
T1 construct: expressed in transfected cells; host or cells: CHO
Procedure: The ability of the compounds of the invention to inhibit the Kv1.5 potassium channel was measured in an electrophysiology experiment, using recombinant cells expressing the channel of interest in a whole cell patch clamp experiment.
The external bathing solution contained (in mM): 150 NaCl, 10 KCl, 3 MgCl2, 1 CaCl2, HEPES, pH 7.4. Patch pipettes were filled with an electrode solution of composition (in mM): 160 KCl, 0.5 MgCl2, 10 HEPES, 1 EGTA, pH 7.2 with KOH.
Compounds were dissolved in DMSO (100%) and freshly made up in the external bather at the desired concentration (final DMSO concentration=0.1%). All experiments were conducted at room temperature.
For whole-cell patch-clamp studies cells (CHO stably transfected with hKv1.5) were seeded onto glass coverslips before recordings were made. Cells were seeded in sterile 30 mm Petri dishes at a density to enable isolated cells to be selected for patch clamp experiments. The dishes were stored in a humidified, gassed (5% CO2) incubator at 37° C. until use.
Whole-cell patch-clamp recordings of membrane currents were made following gigaohm seal formation between the patch electrode and the cell using HEKA EPC-9/10 amplifiers controlled by Pulse Software (Ver8.5x/8.6x, HEKA, Germany). Coverslips seeded with cells were placed in a recording chamber mounted on the stage of an inverted microscope. During the experiment the cell of interest was continuously superfused with bather solution delivered via a cannula placed in close proximity to the cell to enable control of the extracellular solution environment. Only those cells with a current>500 pA were used for experiments. […]
Electrophysiology voltage-step protocols and analysis of data was performed as follows. […] Mean currents during 75-95% of the depolarising step to 0 mV were analysed using Pulsefit software (v8.x, HEKA, Germany). […] The test substance was allowed to equilibrate during which time voltage protocol was repeatedly applied and recorded. Percentage inhibition of the current in the presence of test substance was calculated relative to the control pre-drug value.

T1 sequence (P22460 whole entry): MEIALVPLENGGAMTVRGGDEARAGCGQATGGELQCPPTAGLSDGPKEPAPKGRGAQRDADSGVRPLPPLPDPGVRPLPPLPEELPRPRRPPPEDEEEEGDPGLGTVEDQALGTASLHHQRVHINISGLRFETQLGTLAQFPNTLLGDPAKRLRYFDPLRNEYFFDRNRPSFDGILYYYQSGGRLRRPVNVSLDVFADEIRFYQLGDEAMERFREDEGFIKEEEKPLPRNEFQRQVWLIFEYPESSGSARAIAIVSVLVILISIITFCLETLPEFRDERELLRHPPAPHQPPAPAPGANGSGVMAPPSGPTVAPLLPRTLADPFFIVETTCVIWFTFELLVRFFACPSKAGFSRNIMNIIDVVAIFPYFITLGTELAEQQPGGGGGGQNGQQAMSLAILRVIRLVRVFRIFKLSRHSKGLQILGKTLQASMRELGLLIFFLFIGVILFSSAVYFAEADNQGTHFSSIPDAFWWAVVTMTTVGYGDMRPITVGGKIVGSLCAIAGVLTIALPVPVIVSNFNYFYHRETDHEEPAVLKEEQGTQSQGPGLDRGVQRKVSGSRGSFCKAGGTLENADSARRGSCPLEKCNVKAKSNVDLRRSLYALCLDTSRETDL

## O=C(NCCO)C1CCCN(c2nc(NCc3ccccn3)c3c(-c4ccccc4)csc3n2)C1 (racemic) [Racemate, 1-{5-Phenyl-4-[(pyridin-2-ylmethyl)-amino]-thieno[2,3-d]pyrimidin-2-yl}-piperidine-3carboxylic acid (2-hydroxy-ethyl)-amide]
hKv1.5
  IC50: 9 nM
other
  melting point: 190 to 194 °C

## O=C(NCCO)[C@@H]1CCCN(c2nc(NCc3ccccn3)c3c(-c4ccccc4)csc3n2)C1 [(R) enantiomer (Ic), (R)-1-{5-Phenyl-4-[(pyridin-2-ylmethyl)-amino]-thieno[2,3-d]pyrimidin-2-yl}-piperidine-3-carboxylic acid (2-hydroxy-ethyl)-amide]
hKv1.5
  IC50: 5 nM
other
  melting point: 71 to 76 °C

## O=C(NCCO)[C@H]1CCCN(c2nc(NCc3ccccn3)c3c(-c4ccccc4)csc3n2)C1 [(S) enantiomer (Ib), (S)-1-{5-Phenyl-4-[(pyridin-2-ylmethyl)-amino]-thieno[2,3-d]pyrimidin-2-yl}-piperidine-3-carboxylic acid (2-hydroxy-ethyl)-amide]
hKv1.5
  IC50: 27 nM
other
  melting point: 61 to 65 °C
